Values after ≈ are worked out from the molar mass of the structure shown.
Assays:
[1] = test system: Daphnia magna; experiment: whole plant or invertebrate; format: in vivo; details: for EC50: Daphnia magna, read-out: Mean EC50
Protocol: Determination of the EC50 Value in Test Tubes
Using Daphnia magna as a test species a series of test concentrations of the standard reference toxicant CuSO4 was established in triplicate. Each replicate consisted of 10 ml of test media in a 15 ml glass test tube. Five organisms were placed in each tube. The tubes were then maintained for a period of one hour at ambient room environmental conditions. At the end of one hour 0.4 mg of the substrate 4-Methylumbelliferyl b-D-galactoside (MUF) was added. Fifteen minutes after the addition of the MUF the test tubes were taken into a dark room. […] A record was made of the number of strongly fluorescing Daphnia magna bodies. […] These organisms were then compared to each of the other triplicate concentrations.
The data was then analyzed statistically by conventional methods (Methods for Measuring the Acute Toxicity of Effluents to Freshwater and Marine Organisms (Third Edition) EPA/600/4-85/013).
11 standard reference toxicants were then analyzed by the above method. […]

[2] = test system: Daphnia magna; experiment: Daphnia magna fluorescence bioassay in a multiwell plate (Example 1); format: in vivo; set-up: key to fluorescence of Daphnia magna: fluorescing; nonfluorescing; details: for fluorescence of Daphnia magna / survival (all alive): replicates #1, #2, #3
Text: Determination of an EC50 Value in a Multiwell Plate
The objective of this example was to determine the EC50 value and its confidence limits for the test substance copper sulfate ([…]) to the common water flea, Daphnia magna.
Using the invertebrate Daphnia magna as a test species a series of test concentratins are established with the standard reference toxicant copper sulfate, CuSo4, in triplicate at the following concentrations:
One ml of each of the above CuSO4 solutions was pippetted into a mutiwell plate (3 replications per concentration, 1 ml per replicate). To each of 18 wells in the plate 5 Daphnia magna were added and exposed to the test concentrations for a period of five minutes. Then to each of the 18 wells, with the exception of 0-B 1, 2 and 3, 1.0 mg of 4-Methylumbelliferyl b-D-Galactoside (MUF) was dropped onto the surface of each well. The powder settled to the bottom of each well. After 1 minute of exposure, each sample was read. An ultra-violet light (black light) was held over the multiwell in a dark room. The fluorescent intensity of Controls 0-A ppm (maximum intensity) and Controls 0-B ppm (minimum intensity) were utilized as baselines to compare the effects of test concentrations 0.01 through 10.0 ppm CuSO4.

[3] = Table 2, three tests at different times per toxicant, 1 hour exposure, 15 minutes after MUF

With `[Zn]` [Zn, zinc] the “Mean EC50” value [1, 3] was 4.3 ppm.

For `[Cu]` [Cu, copper], the “EC50 for Cu with Daphnia magna” value ([1]; test tubes, 1 hour exposure, 15 minutes after MUF) was 0.23 ppm.

For `[Cr]` [Cr, chromium], the “Mean EC50” value [1, 3] was 3.7 ppm.

mercury [Hg] was tested, and the “Mean EC50” value [1, 3] was 0.02 ppm.

For `[Cd]` [Cd, cadmium], the “Mean EC50” value [1, 3] was 0.41 ppm.

Work on `Oc1c(Cl)c(Cl)c(Cl)c(Cl)c1Cl` [NaPCP] yielded an EC50 [1, 3] of 1 µg/mL (≈ 3.75 µM).

With copper sulfate [CuSO4] the “fluorescence of Daphnia magna” value ([2]; 0.01 ppm) was “f”, the “survival (all alive)” value ([2]; 0.01 ppm) was “all alive” and the “fluorescence of Daphnia magna” value ([2]; 0.1 ppm) was “f”. The “survival (all alive)” value ([2]; 0.1 ppm) was “all alive”, the “fluorescence of Daphnia magna” value ([2]; 1.0 ppm) was “f” and the “survival (all alive)” value ([2]; 1.0 ppm) was “all alive”. The “sublethal adverse affect detected” value ([2]; 10.0 ppm, in less than 10 minutes) was “sublethal adverse affect”, the “fluorescence of Daphnia magna” value ([2]; 10.0 ppm) was “nf” and the “survival (all alive)” value ([2]; 10.0 ppm) was “all alive”. For the same compound, the EC50 ([2]; multiwell plate, 5 minutes exposure, MUF substrate, read after 1 minute) was 3.2 ppm.

`CCCCCCCCCCCCOS(=O)(=O)O` [NaLS] gave an EC50 [1, 3] of 74.1 µg/mL (≈ 278 µM).

`C=O` [Formaldehyde] showed an EC50 ([1]; 1 h) of 39.2 µg/mL (≈ 1310 µM).

For `Cc1ccccc1` [Toluene], the EC50 ([1]; 1 h) was 6.3 µg/mL (≈ 68.4 µM).

In the case of `c1ccccc1` [Benzene], the EC50 ([1]; 1 h) was 6.5 µg/mL (≈ 83.2 µM).

`Oc1ccccc1` [Phenol] was tested, and the EC50 ([1]; 1 h) was 37.1 µg/mL (≈ 394 µM).

Source: patent US5094944A, “Flourescent aquatic bioassay and procedure” (priority 1990, dated 1992)
